Test results taken from US20250092029A1 (THE WISTAR INSTITUTE OF ANATOMY AND BIOLOGY, priority 2022, published 2025).
Like-named read-outs stand apart in the source and are kept apart here.

Columns and labels:
[1] = molecular target: SARS-CoV-2 Mpro (Severe acute respiratory syndrome coronavirus 2 (2019-nCoV) (SARS-CoV-2), UniProt P0DTD1); test: biochemical; type: biochemical
[2] = molecular target: cathepsin B (Homo sapiens (Human), UniProt P07858); test: Cathepsin B enzymatic assay; type: biochemical
Method: Cathepsin B enzymatic assay Assays contained 0.6 nM cathepsin B (RD systems: 953-CY-010), 25 uM Z-LR-AMC, 100 nL of test compound in 100% DMSO, in at total of 10 uL of 50 mM MES, pH 5.0, 150 mM NaCl, 0.05% CHAPS, 5 mM DTT in black low volume 384-well plates. The production of AMC was followed at 5 min intervals at 355 nm excitation, 460 nm emission in an Envision microplate reader (PerkinElmer). Reaction rates were determined by linear regression of the resulting progress curves. […] Nonlinear regression fits of the data to a one-site dose response curve were performed using XLFit (IDBS).

[3] = molecular target: cathepsin L (Homo sapiens (Human), UniProt P07711); test: Cathepsin L enzymatic assay; type: biochemical
cathepsin L, sequence (P07711 114-333): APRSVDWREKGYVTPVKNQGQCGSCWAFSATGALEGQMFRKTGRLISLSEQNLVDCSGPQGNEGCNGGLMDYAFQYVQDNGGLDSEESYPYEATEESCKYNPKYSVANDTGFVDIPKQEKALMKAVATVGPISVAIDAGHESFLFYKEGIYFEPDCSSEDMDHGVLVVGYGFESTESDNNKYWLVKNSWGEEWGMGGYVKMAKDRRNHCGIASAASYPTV
Method: Cathepsin L enzymatic assay Assays contained 25 pM cathepsin L (RD systems: 952-CY-010), 5 uM LR-AMC, 100 nL of test compound in 100% DMSO, in at total of 10 uL of 20 mM KPO4, pH 6.0, 150 mM NaCl, 0.005% Tween20, 5 mM DTT in black low volume 384-well plates. The production of AMC was followed at 5 min intervals at 355 nm excitation, 460 nm emission in an Envision microplate reader (PerkinElmer). Reaction rates were determined by linear regression of the resulting progress curves. […] Nonlinear regression fits of the data to a one-site dose response curve were performed using XLFit (IDBS).

[4] = molecular target: thrombin (Homo sapiens (Human), UniProt P00734); test: Thrombin enzymatic assay; type: biochemical
Method: Thrombin enzymatic assay Assays contained 25 pM thrombin (RD systems: 1473-SE-010), 25 uM BOC—PVR-AMC, 100 nL of test compound in 100% DMSO, in at total of 10 μL of 50 mM Tris, pH 7.0, 100 mM NaCl, 10 mM CaCl2, 0.005% Tween20 in black low volume 384-well plates. The production of AMC was followed at 5 min intervals at 355 nm excitation, 460 nm emission in an Envision microplate reader (PerkinElmer). Reaction rates were determined by linear regression of the resulting progress curves. […] Nonlinear regression fits of the data to a one-site dose response curve were performed using XLFit (IDBS).

[5] = tested on: SARS-CoV-2 (WT virus, WA1/2020); test: Virus replication in Vero-E6 cells, alamar blue viability readout; type: cell-based; details: read-out: EC50 against virus replication
[6] = Metabolic stability in mouse liver microsomes
[7] = tested on: SARS-CoV-2 WT (WA1/2020); test: Virus replication in Vero-E6 cells, nucleocapsid immunostaining and high-content imaging, WT; type: cell-based; details: for EC50: WT (WA1/2020), 150× TCID50, 48 h, high-content imaging, read-out: EC50 against virus replication
[8] = tested on: SARS-CoV-2 Beta (B.1.351); test: Virus replication in Vero-E6 cells, nucleocapsid immunostaining and high-content imaging, Beta; type: cell-based
[9] = tested on: SARS-CoV-2 Delta (B.1.617); test: Virus replication in Vero-E6 cells, nucleocapsid immunostaining and high-content imaging, Delta; type: cell-based; details: for EC50: read-out: EC50 against virus replication
[10] = hamster, in vivo, ip, 10 mg/kg
Method: (§1) The compound was administered as a single dose at 10 mg/kg via intraperitoneal injection formulated in 10% DMSO/10% Solutol® HS15/PBS at 2 mg/mL (FIG. 7).

[11] = Male hamster pharmacokinetic study, plasma and lung; details: ip, 10 mg/kg
Method: as §1

[12] = tested on: SARS-CoV-2 Omicron (B.1.1.529); test: Virus replication in Vero-E6 cells, nucleocapsid immunostaining and high-content imaging, Omicron; type: cell-based; details: read-out: EC50 against virus replication
[13] = Severe acute respiratory syndrome coronavirus 2, Vero C1008, 96 h, WT (WA1/2020), 96 h, alamar blue viability
[14] = WT (WA1/2020), 96 h, alamar blue viability
[15] = Severe acute respiratory syndrome coronavirus 2, Vero C1008, 48 h

Structure (SMILES)	incubation time to achieve maximum inhibition [1] [min]	IC50 ([2]; read-out: CatB IC50) [µM]	IC50 ([3]; read-out: CatL IC50) [µM]	IC50 [4] [µM]	EC50 [5, 13] [µM]	half-life [6] [min]	EC50 [5, 14] [µM]	also measured
COc1cccc2[nH]c(C(=O)N[C@@H](CC(C)C)C(=O)N[C@@H](C[C@@H]3CCNC3=O)C(=O)COC(=O)c3c(Cl)cccc3Cl)cc12 [AP-8-001, reference compound]	≤ 10	0.024 ± 0.0075	0.0018 ± 0.00027	> 10	1.97	< 2	–	IC50 [1]: 0.011 µM
O=C(CN1C(=O)[C@@H](NC(=O)c2ccccc2)COc2ccccc21)N[C@@H](C[C@@H]1CCNC1=O)C(=O)COC(=O)c1c(Cl)cccc1Cl [AP-8-011, (S)-3-(2-((S)-3-benzamido-4-oxo-3,4-dihydrobenzo[b][1,4]oxazepin-5(2H)-yl)acetamido)-2-oxo-4-((S)-2-oxopyrrolidin-3-yl)butyl 2,6-dichlorobenzoate]	–	13	> 32	> 32	–	< 2	–	–
O=C(CN1C(=O)[C@@H](NC(=O)OCc2ccccc2)COc2ccccc21)N[C@@H](C[C@@H]1CCNC1=O)C(=O)COC(=O)c1c(Cl)cccc1Cl [AP-8-013, (S)-3-(2-((S)-3-(benzyloxycarbonylamino)-4-oxo-3,4-dihydrobenzo[b][1,4]oxazepin-5(2H)-yl)acetamido)-2-oxo-4-((S)-2-oxopyrrolidin-3-yl)butyl 2,6-dichlorobenzoate]	60 to 120	18	> 32	> 32	< 10	< 2	7.25	IC50 ([2]; read-out: Cathepsin B IC50): > 15 µM; IC50 ([3]; read-out: Cathepsin L IC50): > 15 µM; reducing viral load (percent infected live cells) ([7]; WT (USA-WA1/2020), 50× TCID50, 48 h, FIG. 6): effective; reducing viral load (percent infected live cells) [8]: effective; reducing viral load (percent infected live cells) [9]: effective; clinical symptoms during the in-life phase [10]: no abnormal clinical symptoms; lung concentration achieved ([10]; male): about 8 μM; Kp [11]: 3.2
N[C@H]1COc2ccccc2N(CC(=O)N[C@@H](C[C@@H]2CCNC2=O)C(=O)COC(=O)c2c(Cl)cccc2Cl)C1=O.O=C(O)C(F)(F)F [AP-9-055, (S)-3-(2-((S)-3-amino-4-oxo-3,4-dihydrobenzo[b][1,4]oxazepin-5(2H)-yl)acetamido)-2-oxo-4-((S)-2-oxopyrrolidin-3-yl)butyl 2,6-dichlorobenzoate 2,2,2-trifluoroacetate]	–	–	–	–	–	< 2	–	–
CC(C)C[C@H](NC(=O)OCc1ccccc1)C(=O)N[C@@H](C[C@@H]1CCNC1=O)C(O)S(=O)(=O)O (stereo partly drawn) [GC-376]	–	–	–	–	–	–	–	EC50 [7, 15]: 0.27 µM; EC50 ([8]; Severe acute respiratory syndrome coronavirus 2, Vero C1008, 48 h, read-out: EC50 against virus replication): 0.29 µM; EC50 [9, 15]: 0.64 µM; EC50 [12, 15]: 0.36 µM; EC50 ([5]; Severe acute respiratory syndrome coronavirus 2, Vero C1008, 96 h): 2.05 µM
CC(C)(C)[C@H](NC(=O)C(F)(F)F)C(=O)N1C[C@H]2[C@@H]([C@H]1C(=O)N[C@H](C#N)C[C@@H]1CCNC1=O)C2(C)C [PF07321332]	–	–	–	–	–	–	1.57	EC50 [7]: 0.38 µM; EC50 [9]: 0.33 µM; EC50 [12]: 0.44 µM
